Test results: patent US20250186364A1, “COMBINATION OF ANTISPASMODIC AND ANESTHETIC AGENTS FOR TOPICAL PRODUCTS AND THEIR METHOD OF USE” (priority 2023, published 2025)
“Also recorded” adds a separate entry of the source.

How the values were obtained:
hairless mice = assay: Rotarod performance study in hairless mice; assay type: in vivo; conditions: 5% w/w HD topical
Description: FIG. 7 is an illustration of a Rota Rod apparatus in the present disclosure. Once the mice were trained, the rod was rotated at a constant speed of 20 rpm. Then the mice were placed on the rotating rod and length of time they could stay on the rotating rod was measured in seconds.
The Rotarod study was to investigate the skeletal muscle relaxant effects of HD, specifically its impact on motor coordination and balance in hairless mice. The study was structured to assess both the kinetics of HD's effect over time and its efficacy in inducing muscle relaxation. Efficacy of HD was determined post-treatment at intervals of 15, 30, 60, 75, 90 minutes, and another to evaluate the efficacy, particularly noting the peak effect at 30 minutes post-application. Control and Treatment Groups: Each stage included a control group receiving vehicle (Aloe Vera Gel) and a test group treated with HD, 5% w/w HD (0.5 g) in the vehicle (9.5 g Aloe Vera Gel), prepared right before the study. The topical treatment was applied to the thighs of all four limbs for each mouse.

hind limb muscle = assay: Rat hind limb muscle twitch study; assay type: in vivo, Sprague-Dawley rats
Description: FIG. 1 is a schematic diagram of a validated muscle twitch experimental set-up in the present disclosure. Here anesthetized Sprague-Dawley rats were prepared for muscle contraction assessment of their hindlimbs. The hind limbs were shaved and secured at the knee and ankle joints to prevent movement. The distal tendon of the targeted muscle was connected to a high-sensitivity force transducer to measure contractile force with precision. Electrical stimulation was delivered via electrodes positioned on the sciatic nerve to evoke muscle contractions. Vehicle (control study) or 5% w/w of HD was topically applied to the dermal area corresponding to the muscle group under study, ensuring proximity for local diffusion and effect.
A study was performed to evaluate the effects of HD on muscle contractility using a validated in vivo rat model. The experimental setup was meticulously designed to measure the contractile force of the hind limb muscle in response to electrical stimulation of the sciatic nerve, providing a quantitative assessment of muscle relaxation and contraction dynamics in the presence of HD. Anesthetized Sprague-Dawley rats were used for this study, ensuring minimal variability in response to HD application. Hind limbs were shaved and then immobilized at the knee and ankle joints to isolate the effect of the targeted muscle group. The distal tendon of the targeted muscle was connected to a high-sensitivity force transducer for accurate measurement of contractile force. An electrical stimulation was applied via electrodes strategically placed on the sciatic nerve, designed to evoke muscle contractions with controlled frequency to determine amplitude, and duration parameters. A specific concentration of 5% w/w of HD in lubricating lotion, prepared on the same day, was topically applied to the skin overlaying the muscle group under study and the control group received a vehicle (lubricating lotion) treatment under identical conditions.

[1] = system: mouse extensor digitorum longus muscles; assay: Isolated mouse muscle contraction study
Description: FIG. 4 is a schematic diagram of a validated isolated mouse muscle contraction study. Muscles were anchored at one end to the chamber floor and connected at the other end to a force transducer. After establishing a baseline response to the electrical field stimulation, HD was added to the buffer at concentrations ranging from 0.01% w/w to 1% w/w, and the impact on muscle contractile force was recorded over time at the frequency of 150 Hz. Additionally, muscles were subjected to varying frequencies of electrical stimulation to evaluate the frequency-dependent effects of HD.
This subsequent study was aimed to elucidate the specific effects of HD on isolated muscle tissue from mice, to quantify its potential use as a muscle relaxant. The study's design allowed for the controlled assessment of muscle contractility in a physiological buffer, minimizing external variables present in in vivo models. Muscle Isolation: The mouse extensor digitorum longus muscles were carefully dissected and mounted in a tissue bath super-fused with oxygenated physiological buffer, ensuring tissue viability throughout the experiment (FIG. 4). Baseline Measurement: Initial contractile responses were established via electrical stimulation at various frequencies, setting a comparative baseline for subsequent HD application effects. HD Application: Differing concentrations of HD (ranging from 0.01% to 1%) were introduced to the buffer. The muscle's contractile force (amplitude, which is the maximum contractile force) was determined to assess HD's concentration-dependent effects at a fixed frequency of 150 Hz (FIG. 6). Stimulation Frequency Adjustment: To explore the frequency-dependent nature of HD's action, muscles underwent varied frequencies of electrical stimulation at a fixed concentration of 0.5% of HD. This protocol aimed to simulate conditions of sporadic muscle spasms.

## CCCCC(O)CO (stereo not shown) [HD, 1,2-hexanediol]
Hairless mice
  recovery of mice from the muscle relaxant effect (safety): all mice recovered
Hairless mice; 30 and 60 minutes post treatment, 20 rpm, vehicle 60 seconds
  time spent on Rota Rod: significant decrease
Hairless mice; by 75 minutes
  recovery from the muscle relaxant effect: recovery trend
Hairless mice; preliminary experiments (data not shown)
  time of most notable muscle relaxant activity post-treatment: 30 min
Hind limb muscle; 5% w/w HD topical vs vehicle, p<0.05
  duration of muscle contraction: statistically significant reduction
Hind limb muscle; 5% w/w HD topical, compared to vehicle group
  mean percentage decline in force output from initial peak contraction: quantitatively significant
Hind limb muscle; 5% w/w HD topical, electrical stimulation at 150 Hz
  ability to maintain tetanic contraction throughout the stimulus period: unable to maintain tetanic contraction; also recorded: failing to maintain tetanic tension
[1]; 0.01% HD in buffer, 150 Hz
  inhibitory effect on muscle contraction: No significant inhibitory effect; also recorded: minimal effects
[1]; 0.1% HD in buffer, 150 Hz, vs vehicle controls
  reduction in contractile force: ~44%
[1]; 0.5% HD, varied stimulus frequencies, vs vehicle, n=5
  frequency-dependent decrease in torque generation (force-frequency relationship): inhibition is more complete at higher frequencies of stimulation; also recorded: more significant inhibitory effect
